Data from patent US20230398130A1, “METHODS AND COMPOSITIONS FOR DIFFERENTIATING STEM CELLS” (Massachusetts Institute of Technology, priority 2020, published 2023).

Experiments:
ISC-enriched organoids [1] = assay: Primary screen, 384-well 2.5-D organoid differentiation (ENR+CD, 6 days): basal lysozyme secretion (LYZ.NS); format: cell-based, murine; settings: for Dose.FC.LYZ.NS: FC vs plate median; for SSMD.LYZ.NS: strictly standardized mean difference
Description: (§1) High-throughput screening.

ISC-enriched organoids [2] = assay: Primary screen, 384-well 2.5-D organoid differentiation (ENR+CD, 6 days, Target Selective Inhibitor Library, vs whole-plate median): ATP (CellTiter-Glo 3D, CTG); settings: for Dose.FC.CTG: FC vs plate median; for SSMD.CTG: strictly standardized mean difference
ISC-enriched organoids [3] = assay: Primary screen, 384-well 2.5-D organoid differentiation (ENR+CD, 6 days): carbachol-induced lysozyme secretion (LYZ.S); format: cell-based, murine; settings: primary screen; for Dose.FC.LYZ.S: FC vs plate median; for Z.LYZ.S: standard z score; for SSMD.LYZ.S: strictly standardized mean difference
Description: as §1

[4] = Dose 0.08 uM, primary screen, standard z score
[5] = Dose 0.40 uM, primary screen, standard z score
[6] = Dose 2.00 uM, primary screen, standard z score
[7] = Dose 10.00 uM, primary screen, standard z score
[8] = primary screen, 1st of the 4 dose lines of the treatment (dose not given)
[9] = primary screen, 2nd of the 4 dose lines of the treatment (dose not given)
[10] = primary screen, 3rd of the 4 dose lines of the treatment (dose not given)
[11] = primary screen, 4th of the 4 dose lines of the treatment (dose not given)
[12] = 1st of the 4 dose lines of the treatment (dose not given)
[13] = 2nd of the 4 dose lines of the treatment (dose not given)
[14] = 3rd of the 4 dose lines of the treatment (dose not given)
[15] = 4th of the 4 dose lines of the treatment (dose not given)
[16] = Dose 0.08 uM, standard z score of FC
[17] = Dose 0.40 uM, standard z score of FC
[18] = Dose 2.00 uM, standard z score of FC
[19] = Dose 10.00 uM, standard z score of FC

| Compound | SSMD.LYZ.NS (ISC-enriched organoids [1]; [8]) | SSMD.LYZ.NS (ISC-enriched organoids [1]; [9]) | SSMD.LYZ.NS (ISC-enriched organoids [1]; [10]) | SSMD.LYZ.NS (ISC-enriched organoids [1]; [11]) | SSMD.CTG (ISC-enriched organoids [2]; [8]) | SSMD.CTG (ISC-enriched organoids [2]; [9]) | SSMD.CTG (ISC-enriched organoids [2]; [10]) | SSMD.CTG (ISC-enriched organoids [2]; [11]) | Z.LYZ.S (ISC-enriched organoids [3]; [12]) | Z.LYZ.S (ISC-enriched organoids [3]; [13]) | Z.LYZ.S (ISC-enriched organoids [3]; [14]) | Z.LYZ.S (ISC-enriched organoids [3]; [15]) | SSMD.LYZ.S (ISC-enriched organoids [3]; [12]) | SSMD.LYZ.S (ISC-enriched organoids [3]; [13]) | SSMD.LYZ.S (ISC-enriched organoids [3]; [14]) | SSMD.LYZ.S (ISC-enriched organoids [3]; [15]) | Z.CTG (ISC-enriched organoids [2]; [16]) | Z.CTG (ISC-enriched organoids [2]; [17]) | Z.CTG (ISC-enriched organoids [2]; [18]) | Z.CTG (ISC-enriched organoids [2]; [19]) | also measured |
| --- | --- | --- | --- | --- | --- | --- | --- | --- | --- | --- | --- | --- | --- | --- | --- | --- | --- | --- | --- | --- | --- |
| CC(C)CCNC(=O)[C@H](CC(C)C)NC(=O)[C@H]1O[C@@H]1C(=O)O [Loxistatin Acid (E-64C)] | 0.757 | 0.330 | 0.411 | 0.027 | 0.218 | 0.402 | 0.176 | 0.270 | 0.808 | 0.677 | 0.238 | 0.138 | 0.833 | 0.449 | 0.159 | 0.141 |  |  |  |  | Dose.FC.LYZ.NS (ISC-enriched organoids [1]; Dose 0.08 uM, primary screen): 0.147 log 2 fold change; Z.LYZ.NS (ISC-enriched organoids [1]; [4]): 1.283; Dose.FC.LYZ.NS (ISC-enriched organoids [1]; Dose 0.40 uM, primary screen): 0.061 log 2 fold change; Z.LYZ.NS (ISC-enriched organoids [1]; [5]): 0.534; Dose.FC.LYZ.NS (ISC-enriched organoids [1]; Dose 2.00 uM, primary screen): 0.055 log 2 fold change; Z.LYZ.NS (ISC-enriched organoids [1]; [6]): 0.482; Dose.FC.LYZ.NS (ISC-enriched organoids [1]; Dose 10.00 uM, primary screen): 0.004 log 2 fold change; Z.LYZ.NS (ISC-enriched organoids [1]; [7]): 0.031; Dose.FC.CTG (ISC-enriched organoids [2]; Dose 0.08 uM, primary screen): 0.086 log 2 fold change; Z.CTG (ISC-enriched organoids [2]; [4]): 0.206; Dose.FC.CTG (ISC-enriched organoids [2]; Dose 0.40 uM, primary screen): 0.156 log 2 fold change; Z.CTG (ISC-enriched organoids [2]; [5]): 0.373; Dose.FC.CTG (ISC-enriched organoids [2]; Dose 2.00 uM, primary screen): 0.080 log 2 fold change; Z.CTG (ISC-enriched organoids [2]; [6]): 0.191; Dose.FC.CTG (ISC-enriched organoids [2]; Dose 10.00 uM, primary screen): 0.094 log 2 fold change; Z.CTG (ISC-enriched organoids [2]; [7]): 0.224; Dose.FC.LYZ.S (ISC-enriched organoids [3]; Dose 0.08 uM): 0.125 log 2 fold change; Dose.FC.LYZ.S (ISC-enriched organoids [3]; Dose 0.40 uM): 0.105 log 2 fold change; Dose.FC.LYZ.S (ISC-enriched organoids [3]; Dose 2.00 uM): 0.037 log 2 fold change; Dose.FC.LYZ.S (ISC-enriched organoids [3]; Dose 10.00 uM): 0.021 log 2 fold change |
| C=CCn1c(=O)c2cnc(Nc3ccc(N4CCN(C)CC4)cc3)nc2n1-c1cccc(C(C)(C)O)n1 [MK-1775] | 0.317 | −1.150 | −1.545 | −0.993 | 0.536 | −1.242 | −1.697 | −1.818 | 0.424 | −1.404 | −1.345 | −1.643 | 0.440 | −1.378 | −1.357 | −1.331 | 0.393 | −1.074 | −1.919 | −2.451 |  |
| Cl.Cl.NC1(c2ccc(-c3nc4ccn5c(=O)[nH]nc5c4cc3-c3ccccc3)cc2)CCC1 [MK-2206 2HCl] | 0.230 | −0.481 | −1.586 | −1.642 | 0.242 | −0.074 | −0.453 | −1.730 | 0.460 | 0.536 | −1.546 | −2.370 | 0.403 | 0.232 | −1.686 | −1.628 | 0.169 | −0.055 | −0.425 | −1.290 | Dose.FC.LYZ.NS (ISC-enriched organoids [1]; Dose 0.08 uM, primary screen): 0.024 log 2 fold change; Z.LYZ.NS (ISC-enriched organoids [1]; [16]): 0.205; Dose.FC.LYZ.NS (ISC-enriched organoids [1]; Dose 0.40 uM, primary screen): −0.063 log 2 fold change; Z.LYZ.NS (ISC-enriched organoids [1]; [17]): −0.550; Dose.FC.LYZ.NS (ISC-enriched organoids [1]; Dose 2.00 uM, primary screen): −0.182 log 2 fold change; Z.LYZ.NS (ISC-enriched organoids [1]; [18]): −1.587; Dose.FC.LYZ.NS (ISC-enriched organoids [1]; Dose 10.00 uM, primary screen): −0.236 log 2 fold change; Z.LYZ.NS (ISC-enriched organoids [1]; [19]): −2.058; Dose.FC.CTG (ISC-enriched organoids [2]; Dose 0.08 uM, primary screen): 0.071 log 2 fold change; Dose.FC.CTG (ISC-enriched organoids [2]; Dose 0.40 uM, primary screen): −0.023 log 2 fold change; Dose.FC.CTG (ISC-enriched organoids [2]; Dose 2.00 uM, primary screen): −0.178 log 2 fold change; Dose.FC.CTG (ISC-enriched organoids [2]; Dose 10.00 uM, primary screen): −0.540 log 2 fold change; Dose.FC.LYZ.S (ISC-enriched organoids [3]; Dose 0.08 uM): 0.071 log 2 fold change; Dose.FC.LYZ.S (ISC-enriched organoids [3]; Dose 0.40 uM): 0.083 log 2 fold change; Dose.FC.LYZ.S (ISC-enriched organoids [3]; Dose 2.00 uM): −0.239 log 2 fold change; Dose.FC.LYZ.S (ISC-enriched organoids [3]; Dose 10.00 uM): −0.367 log 2 fold change |
| C[C@](O)(COc1ccc(C#N)cc1)C(=O)Nc1ccc(C#N)c(C(F)(F)F)c1 [MK-2866 (GTx-024)] | 0.314 | 0.150 | 0.169 | −0.515 | 0.004 | −0.285 | −0.199 | −0.814 | 0.466 | 0.322 | 0.506 | −0.463 | 0.378 | 0.164 | 0.307 | −0.543 | 0.003 | −0.474 | −0.210 | −0.877 | Dose.FC.LYZ.NS (ISC-enriched organoids [1]; Dose 0.08 uM, primary screen): 0.035 log 2 fold change; Z.LYZ.NS (ISC-enriched organoids [1]; [16]): 0.309; Dose.FC.LYZ.NS (ISC-enriched organoids [1]; Dose 0.40 uM, primary screen): 0.028 log 2 fold change; Z.LYZ.NS (ISC-enriched organoids [1]; [17]): 0.241; Dose.FC.LYZ.NS (ISC-enriched organoids [1]; Dose 2.00 uM, primary screen): 0.036 log 2 fold change; Z.LYZ.NS (ISC-enriched organoids [1]; [18]): 0.310; Dose.FC.LYZ.NS (ISC-enriched organoids [1]; Dose 10.00 uM, primary screen): −0.059 log 2 fold change; Z.LYZ.NS (ISC-enriched organoids [1]; [19]): −0.510; Dose.FC.CTG (ISC-enriched organoids [2]; Dose 0.08 uM, primary screen): 0.001 log 2 fold change; Dose.FC.CTG (ISC-enriched organoids [2]; Dose 0.40 uM, primary screen): −0.198 log 2 fold change; Dose.FC.CTG (ISC-enriched organoids [2]; Dose 2.00 uM, primary screen): −0.088 log 2 fold change; Dose.FC.CTG (ISC-enriched organoids [2]; Dose 10.00 uM, primary screen): −0.367 log 2 fold change; Dose.FC.LYZ.S (ISC-enriched organoids [3]; Dose 0.08 uM): 0.072 log 2 fold change; Dose.FC.LYZ.S (ISC-enriched organoids [3]; Dose 0.40 uM): 0.050 log 2 fold change; Dose.FC.LYZ.S (ISC-enriched organoids [3]; Dose 2.00 uM): 0.078 log 2 fold change; Dose.FC.LYZ.S (ISC-enriched organoids [3]; Dose 10.00 uM): −0.072 log 2 fold change |
| O=C(O)Cn1nnc(-c2cc(N3CCC(Oc4cc(F)ccc4Br)CC3)no2)n1 [MK-8245] | 0.168 | 0.200 | −0.322 | −0.716 | 0.453 | −0.219 | −0.054 | −0.921 | 0.449 | 1.194 | −0.399 | −0.799 | 0.442 | 0.527 | −0.357 | −0.752 | 0.374 | −0.269 | −0.051 | −0.629 |  |
